Data: patent US9624255B2, “Carbohydrate-mediated tumor targeting” (Arizona Board of Regents, priority 2009, dated 2017)

Tests used:
MCF-7 (Breast carcinoma) = assay: Microbubble attachment to cultured cells (flow chamber, inverted microscopy); assay type: cell-based
Method: To create BLM A5- and deglyco BLM A5-microbubbles, the synthesized biotinylated compounds (1, 2 and 32) were conjugated to Targestar^B Targeted Ultrasound Contrast Agents (Targeson). For each of these preparations, 400 μL of Coupling Reagent (Targeson) was added to 1.5 mL of conjugated Targestar^B microbubbles and incubated for 20 min at room temperature, with gentle agitation every 5 min. The resulting product was divided into two syringes, each rinsed with 1.75 mL of Infusion Buffer, and then centrifuged for 3 min (400×g, 10° C.). The infranatant was then drained to 1 mL. For each separate preparation, […] containing 50 nM of the biotinylated compound was added to one of the vials and both were incubated at room temperature for 20 min with gentle agitation every 5 min. To each sample was added 1.75 mL of Infusion Buffer before centrifugation for 3 min at 400×g (10° C.). This solution was then drained to 1.0 mL before recovery of the supernatant and repetition of the previous step. Finally, the supernatant was resuspended in Infusion Buffer to a final volume of 2.0 mL.
Attachment of the (biotinylated BLM A5-, biotinylated deglyco BLM A5-, and biotinylated BLM A5 disaccharide-conjugated) microbubbles to the cultured cancer cells was imaged using an inverted microscope Zeiss Axiovert 200M fitted with an AxioCam MRm camera. […]

[1] = tested on: A-549 lung carcinoma cells; assay: Visualization of cell association of fluorescent-disaccharide probe (fluorescence microscopy); assay type: cell-based; settings: 1 fM, five minutes at 37° C.; A-549 compared with CCL-75 normal lung fibroblasts; FIG. 5
Method: In this case, we tethered a non-fluorescent pro-fluorophore, 5(6)-carboxyfluorescein diacetate (CFSE) onto the disaccharide of bleomycin to create a BLM-sugar probe. This fluorophore should only fluoresce when acted upon by the cell, where intracellular esterases cleave the acetate groups allowing for detectable fluorescence.
Both A-549 lung carcinoma cells and CCL-75 normal lung fibroblasts were seeded on 35 mm glass cover slips at a density of 2.5×10^5 cells before incubating 48 hours to allow attachment and growth. A total effective concentration of 1 fM of the fluorescent-sugar derivative (34) and 5(6)-carboxyfluorescein diacetate N-succinimidyl ester (CFSE) compounds were added to cover slips of each cell type before incubation for five minutes at 37° C. To prepare slides for microscopy viewing, cover slips were washed in PBS and 70% ethanol solution before fixation in Histochoice MB Fixative (Electron Microscopy Sciences, Hatfield, Pa.) for 15 minutes. Fixed cover slips were mounted onto glass slides for viewing. Using the Zeiss Axiovert 200M inverted microscope (Apotome camera), fluorescent images were acquired using DIC (at 35 ms exposure time) and appropriate fluorescence filter at 470-490 nm excitation (761 ms exposure time), 40× objective magnification.

Compound | Microbubble attachment to MCF-7 cells (in words) (MCF-7 (Breast carcinoma); MCF-7 breast carcinoma cells, compound conjugated to microbubble, FIG. 3/4) | Preferential attachment, tumor over normal cells (MCF-7 (Breast carcinoma); MCF-7 versus MCF-10A, conjugated onto the microbubble, FIG. 4a) | Fluorescence of cells after exposure to compound [1]
NC(=O)O[C@@H]1[C@H](O)[C@@H](O[C@@H]2[C@H](OCCOCCNC(=O)CCCC[C@@H]3SC[C@@H]4NC(=O)N[C@@H]43)O[C@@H](CO)[C@@H](O)[C@@H]2O)O[C@H](CO)[C@H]1O [Compound 32, (2R,3S,4S,5R,6R)-2-((2R,3S,4S,5S,6S)-4,5-dihydroxy-6-(hydroxymethyl)-2-(2-(2-(5-((3aS,4S,6aR)-2-oxohexahydro-1H-thieno[3,4-d]imidazol-4-yl)pentanamido)ethoxy)ethoxy)tetrahydro-2H-pyran-3-yloxy)-3,5-dihydroxy-6-(hydroxymethyl)tetrahydro-2H-pyran-4-yl Carbamate] | greater attachment than biotinylated bleomycin A5 | preferential attachment to MCF-7 tumor cells over MCF-10A cells | –
CC(=O)Oc1ccc2c(c1)Oc1cc(OC(C)=O)ccc1C21OC(=O)c2cc(C(=O)NCCOCCO[C@@H]3O[C@@H](CO)[C@@H](O)[C@H](O)[C@@H]3O[C@H]3O[C@H](CO)[C@@H](O)[C@H](OC(N)=O)[C@@H]3O)ccc21 [Compound 34, (4,5)-(2-(2-((2R,3S,4S,5S,6S)-3-((2R,3S,4S,5R,6R)-4-(Carbamoyloxy)-3,5-dihydroxy-6-(hydroxymethyl)tetrahydro-2H-pyran-2-yloxy)-4,5-dihydroxy-6-(hydroxymethyl)tetrahydro-2H-pyran-2-yloxy)ethoxy)ethylcarbamoyl)-3-oxo-3H-spiro[isobenzofuran-1,9′-xanthene]-3′,6′-diyl Diacetate] | – | – | highest fluorescence only in the tumor cell line
5(6)-carboxyfluorescein diacetate N-succinimidyl ester [CFSE, reference compound] | – | – | lack of marked fluorescence
